Measured values published in PubChem BioAssay (NCI).
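Tested at 5 concentrations; 48 h exposure; 96-well plates; endpoints linearly interpolated, else capped at highest concentration. Here, GI50 denotes the concentration required for 50% inhibition of growth. TGI: concentration producing complete growth inhibition.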

What was measured:
Experiment in all cases: DTP human tumour cell line panel, 48 h
SK-MEL-2 melanoma = system: SK-MEL-2 melanoma
SF-268 CNS = system: SF-268 CNS
MOLT-4 leukemia = system: MOLT-4 leukemia
SK-OV-3 ovarian = system: SK-OV-3 ovarian
BT-549 breast = system: BT-549 breast
HOP-92 NSCLC = system: HOP-92 NSCLC
OVCAR-3 ovarian = system: OVCAR-3 ovarian
NCI-H226 lung = system: NCI-H226 lung
NCI/ADR-RES ovarian = system: NCI/ADR-RES ovarian
CCRF-CEM leukemia = system: CCRF-CEM leukemia
SN12C renal = system: SN12C renal
TK-10 renal = system: TK-10 renal
MCF7 breast = system: MCF7 breast
SNB-19 CNS = system: SNB-19 CNS
K-562 leukemia = system: K-562 leukemia
A498 renal = system: A498 renal
M14 melanoma = system: M14 melanoma
SW-620 colon = system: SW-620 colon
SK-MEL-28 melanoma = system: SK-MEL-28 melanoma
HS 578T breast = system: HS 578T breast
IGROV1 ovarian = system: IGROV1 ovarian
ACHN renal = system: ACHN renal
HCT-116 colon = system: HCT-116 colon
SF-295 CNS = system: SF-295 CNS
EKVX NSCLC = system: EKVX NSCLC
RPMI-8226 leukemia = system: RPMI-8226 leukemia
UO-31 renal = system: UO-31 renal
MDA-MB-435 = system: MDA-MB-435
786-0 renal = system: 786-0 renal
NCI-H23 lung = system: NCI-H23 lung
OVCAR-4 ovarian = system: OVCAR-4 ovarian
UACC-257 melanoma = system: UACC-257 melanoma
A549 NSCLC = system: A549 NSCLC
HCT-15 colon = system: HCT-15 colon
U251 CNS = system: U251 CNS
PC-3 prostate = system: PC-3 prostate
MALME-3M melanoma = system: MALME-3M melanoma
SF-539 CNS = system: SF-539 CNS
HCC-2998 colon = system: HCC-2998 colon
KM12 colon = system: KM12 colon
HT29 colon = system: HT29 colon
COLO 205 colon = system: COLO 205 colon
LOX IMVI melanoma = system: LOX IMVI melanoma
SNB-75 CNS = system: SNB-75 CNS
OVCAR-5 ovarian = system: OVCAR-5 ovarian
NCI-H460 lung = system: NCI-H460 lung
SR leukemia = system: SR leukemia
RXF 393 renal = system: RXF 393 renal
MDA-MB-231 breast = system: MDA-MB-231 breast
T-47D breast = system: T-47D breast
HOP-62 NSCLC = system: HOP-62 NSCLC
UACC-62 melanoma = system: UACC-62 melanoma
HL-60(TB) leukemia = system: HL-60(TB) leukemia
SK-MEL-5 melanoma = system: SK-MEL-5 melanoma
NCI-H522 lung = system: NCI-H522 lung
OVCAR-8 ovarian = system: OVCAR-8 ovarian

## Cc1cc(N(CCNc2ccnc3cc(Cl)ccc23)Cc2ccc3c(c2)OCO3)nc(N2CCN(C)CC2)n1
SK-MEL-2 melanoma
  GI50: 1980 nM
  TGI: 4.02 µM
SF-268 CNS
  GI50: 2420 nM
  TGI: 7.89 µM
MOLT-4 leukemia
  GI50: 2090 nM
  TGI: 8.36 µM
SK-OV-3 ovarian
  GI50: 9.55 µM
  TGI: 21.6 µM
BT-549 breast
  GI50: 2170 nM
  TGI: 5.54 µM
HOP-92 NSCLC
  GI50: 1290 nM
  TGI: 2960 nM
OVCAR-3 ovarian
  GI50: 2730 nM
  TGI: 10.9 µM
NCI-H226 lung
  GI50: 17.7 µM
  TGI: 36.8 µM
NCI/ADR-RES ovarian
  GI50: 3.26 µM
  TGI: 14.7 µM
CCRF-CEM leukemia
  GI50: 2980 nM
  TGI: 9.31 µM
SN12C renal
  GI50: 3.77 µM
  TGI: 14.2 µM
TK-10 renal
  GI50: 1810 nM
  TGI: 3.61 µM
MCF7 breast
  GI50: 2400 nM
  TGI: 10.9 µM
SNB-19 CNS
  GI50: 3.78 µM
  TGI: 13 µM
K-562 leukemia
  GI50: 1160 nM
  TGI: 3.93 µM
A498 renal
  GI50: 2430 nM
  TGI: 8.85 µM
M14 melanoma
  GI50: 1890 nM
  TGI: 3.55 µM
SW-620 colon
  GI50: 2080 nM
  TGI: 5.41 µM
SK-MEL-28 melanoma
  GI50: 1890 nM
  TGI: 3.53 µM
HS 578T breast
  GI50: 1870 nM
  TGI: 5.2 µM
IGROV1 ovarian
  GI50: 3.09 µM
  TGI: 12.7 µM
ACHN renal
  GI50: 2520 nM
  TGI: 5.78 µM
HCT-116 colon
  GI50: 1410 nM
  TGI: 4.7 µM
SF-295 CNS
  GI50: 1720 nM
  TGI: 3.42 µM
EKVX NSCLC
  GI50: 4.4 µM
  TGI: 18.9 µM
RPMI-8226 leukemia
  GI50: 1880 nM
  TGI: 5.23 µM
UO-31 renal
  GI50: 1430 nM
  TGI: 2850 nM
MDA-MB-435
  GI50: 1610 nM
  TGI: 3.07 µM
786-0 renal
  GI50: 1590 nM
  TGI: 3.29 µM
NCI-H23 lung
  GI50: 6.39 µM
  TGI: 22.3 µM
OVCAR-4 ovarian
  GI50: 2830 nM
  TGI: 13.9 µM
UACC-257 melanoma
  GI50: 2010 nM
  TGI: 3.79 µM
A549 NSCLC
  GI50: 3.51 µM
  TGI: 12.8 µM
HCT-15 colon
  GI50: 1550 nM
  TGI: 3.82 µM
U251 CNS
  GI50: 2010 nM
  TGI: 4.25 µM
PC-3 prostate
  GI50: 4.59 µM
  TGI: 17.7 µM
MALME-3M melanoma
  GI50: 1770 nM
  TGI: 3.36 µM
SF-539 CNS
  GI50: 1780 nM
  TGI: 3.33 µM
HCC-2998 colon
  GI50: 2120 nM
  TGI: 4.88 µM
KM12 colon
  GI50: 4.42 µM
  TGI: 17.7 µM
HT29 colon
  GI50: 1840 nM
  TGI: 5.96 µM
COLO 205 colon
  GI50: 1860 nM
  TGI: 3.69 µM
LOX IMVI melanoma
  GI50: 1790 nM
  TGI: 3.66 µM
SNB-75 CNS
  GI50: 1440 nM
  TGI: 3.04 µM
OVCAR-5 ovarian
  GI50: 5.5 µM
  TGI: 18.3 µM
NCI-H460 lung
  GI50: 2650 nM
  TGI: 7.86 µM
SR leukemia
  GI50: 1500 nM
  TGI: 4.43 µM
RXF 393 renal
  GI50: 1430 nM
  TGI: 3.17 µM
MDA-MB-231 breast
  GI50: 1770 nM
  TGI: 4.32 µM
T-47D breast
  GI50: 2050 nM
  TGI: 4.64 µM
HOP-62 NSCLC
  GI50: 2220 nM
  TGI: 15.4 µM
UACC-62 melanoma
  GI50: 1900 nM
  TGI: 3.51 µM
HL-60(TB) leukemia
  GI50: 2060 nM
  TGI: 4.27 µM
SK-MEL-5 melanoma
  GI50: 1790 nM
  TGI: 3.25 µM
NCI-H522 lung
  GI50: 1850 nM
  TGI: 3.81 µM
OVCAR-8 ovarian
  GI50: 3.18 µM
  TGI: 11.2 µM
